Experimental data published in US4774252A, “Benzisoselenazolonyl derivatives and processes for the treatment of rheumatic disease” (priority 1985, dated 1988).

Key:
[1] = test system: Cobra-Venom-Factor (CVF)-oedema; test: CVF-oedema test (inflammation-inhibiting activity); type: in vivo; details: po, read-out: ED50 values in CVF-oedema
[2] = test system: CVF-oedema, carragenine-test; details: S. Leyck et al., Agents and Actions 13, 437-438 (1983); cited from earlier work

SMILES	ED50 [1]	inhibiting effect in CVF-oedema-test as compared with carragenine-test [2]
CC(C)C(C(=O)O)n1[se]c2ccccc2c1=O (racemic) [DL-2-(1,2-Benzisoselenazole-3(2H)-one-2-yl)-3-methylbutyric acid]	5 mg/kg	
c1ccc([C@H]2CN3CCSC3=N2)cc1 [levamisole]		more significant inhibiting effect in CVF-oedema-test as in carragenine-test
O=C1CCN(c2ccccc2)N1 [phenidone]		more significant inhibiting effect in CVF-oedema-test as in carragenine-test
